Laboratory results from US10278979B2, “Therapeutic agent for intractable leukemia” (RIKEN, priority 2015, dated 2019).
Entries after “also recorded” stand apart in the source; their conditions may differ.

What was measured:
[1] = test system: patient-derived MLL cells (MLL-AF9); assay: Leukemia humanized mouse (MLL-AF9), human leukemia cells in peripheral blood; assay type: in vivo; settings: MLL-AF9 cases in NSG mice; dexamethasone 70 mg/kg IP daily and/or RK-20449 30 mg/kg IP BID; FIG. 1-3
Description: (§1) NOD. Cg-Prkdc^scid Il2rg^tmlWjl/Sz (NOD/SCID/IL2rg^null, NSG) mice were developed by subjecting a complete null mutation in the Il2rg gene locus to back cross with NOD. Cg-Prkdc^scid (NOD/SCID) lineage, in the Jackson Laboratory (Bar Harbor, Me. state, USA) (Shultz, L. D. et al., Multiple defects in innate and adaptive immunologic function in NOD/LtSz-scid mouse. J. Immunol. 154, 180-191 (1995)). The mice were raised by feeding irradiated food and acidified water in the animal facilities of RIKEN and the Jackson Laboratory in accordance with the guideline established by the Institutional Animal Committees and maintained under bacterial flora specified.
(§2) NSG mice in the neonatal period were exposed to radiation (1.5 G) and then patient-derived MLL cells (MLL-AF9) were transplanted to the mice. After the presence of the human leukemia cells in the peripheral blood was confirmed by flow cytometry based on the presence of hCD45+CD19+, treatment of the mice (leukemia humanized mice) with dexamethasone (70 mg/kg IP daily) and/or RK-20449 (30 mg/kg IP BID, twice a day) or both was started.

[2] = test system: MLL cells (MLL-AF9 ALL cell) in the bone marrow; assay: Leukemia humanized mouse (MLL-AF9), human leukemia cells in bone marrow (flow cytometry, hCD45/DAB staining); assay type: in vivo; settings: MLL-AF9 case; after treatment; FIG. 4
Description: as §1, §2
After the treatment, the mice were euthanized and the appearance frequency of human leukemia cells in the bone marrow was determined by flow cytometry. At the same time, one of the femur bones was fixed in PFA and […]-thin sections were prepared. […]

[3] = test system: MLL cells (MLL-AF9 ALL cells); assay: Secondary transplantation of MLL cells remaining after treatment into neonatal NSG mice; assay type: in vivo, mouse; settings: cells taken from treated primary recipient, FIG. 7
Description: Finally, human leukemia cells remaining in the bone marrow were purified by sorting and transplanted to neonatal NSG mice (secondary transplantation).
MLL cells (MLL-AF9 ALL cells) were transplanted (primary transplant) to an immunodeficient mouse and a treatment with a combination of dexamethasone and RK-20449 was applied. Thereafter, MLL cells were taken from the mouse and transplanted to another immunodeficient mouse (secondary transplantation). The results are shown in the graphs as FIG. 7. The cases treated with dexamethasone alone and RK-20449 alone were used as controls (for comparison).

## CN1CCN([C@H]2CC[C@H](n3cc(-c4ccc(Oc5ccccc5)cc4)c4c(N)ncnc43)CC2)CC1 [RK-20449, 7-[trans-4-(4-methyl-1-piperazinyl)cyclohexyl]-5-(4-phenoxyphenyl)-7H-pyrrolo[2,3-d]pyrimidin-4-amine]
[1]
  chimerism (percentage) of human leukemia cells in the mouse peripheral blood: not easy to eradicate MLL by single use; also recorded: impossible to expect complete cure of MLL
[2]
  medicinal effect in the bone marrow (appearance frequency of human leukemia cells, flow cytometry): A sufficient therapeutic effect was not obtained
[3]
  MLL cells in secondary transplantation recipient (proliferation after transplantation): MLL cells were present in significantly high percentages
